Two molecules from patent publication US8748666B2, “Preparation methods of methyl-D3-amine and salts thereof” (Suzhou Zelgen Biopharmaceutical Co., Ltd., priority 2010, dated 2014) can be followed below.

Each structure is given as a SMILES string.

The subject of the experiment is human hepatocellular carcinoma SMMC-7721. As to the kind of experiment: Inhibition of tumor growth of human hepatocellular carcinoma SMMC-7721 in nude mice xenograft model. In kind it is in vivo, Balb/c nu/nu nude mice. The procedure:
70 Balb/c nu/nu nude mice, 6 weeks old, female, were bought from Shanghai Experimental Animal Resource Center (Shanghai B&K Universal Group Limited).
SMMC-7721 cells were commercially available from Shanghai Institutes for Biological Science, CAS (Shanghai, China).
The establishment of tumor nude mice xenograft model: SMMC-7721 cells in logarithmic growth period were cultured. After cell number was counted, the cells were suspended in 1×PBS, and the concentration of the cell suspension was adjusted to 1.5×10^7/ml. The tumor cells were inoculated under the skin of right armpit of nude mice with a 1 ml syringe, 3×10^6/0.2 ml/mice. 70 nude mice were inoculated in total.
When the tumor size reached 30-130 mm^3, 58 mice were divided randomly into the different groups. The difference of the mean value of tumor volume in each group was less than 10% and drugs were started to be administrated.
Animal body weight and tumor size were tested twice a week during the experiment. Clinical symptoms were recorded every day. At the end of the administration, the tumor size was recorded by taking pictures. One mouse was sacrificed in each group and tumor tissue was taken and fixed in 4% paraformaldehyde. Observation was continued after the administration, and when the mean size of tumor was larger than 2000 mm^3, or the dying status appeared, the animals were sacrificed, gross anatomy was conducted, and the tumor tissue was taken and fixed in 4% paraformaldehyde.
The formula for calculating the tumor volume (TV) is: TV=a×b^2/2, wherein a, b independently represent the length and the breadth of the tumor. The formula for calculating the relative tumor volume (RTV) is: RTV=Vt/V0, wherein V0 is the tumor volume at the beginning of the administration, and Vt is the […] when measured. The index for evaluating the antitumor activity is relative tumor increment rate T/C (%), and the formula is: T/C (%)=(TRTV/CRTV)×100%, wherein, TRTV is the RTV of the treatment group, and CRTV is the RTV of the negative control group.
Evaluation standard for efficacy: it is effective if the relative tumor increment rate T/C (%) is ≦40% and p<0.05 by statistics analysis.
On the technique in general: Xenograft models place foreign cells or tissue in a host animal.

Setting [1] is: 10 mg/kg po qd x 2 weeks, at the end of administration.
[2] abbreviates: 30 mg/kg po qd x 2 weeks, at the end of administration.
Where [3] appears, read: 100 mg/kg po qd x 2 weeks, at the end of administration (day 15).

`[2H]C([2H])([2H])NC(=O)c1cc(Oc2ccc(NC(=O)Nc3ccc(Cl)c(C(F)(F)F)c3)cc2)ccn1` [CM4306, 4-(4-(3-(4-chloro-3-(trifluoromethyl)phenyl)ureido)-phenoxy)-2-(N-methyl)picolinamide, reference compound]: the “relative tumor increment rate T/C %” value under setting [1] came to 56.9%, the “relative tumor increment rate T/C %” value under setting [2] is on record as 40.6% and the “relative tumor increment rate T/C %” value under setting [3] turned out to be 32.2%.
On to `[2H]C([2H])([2H])NC(=O)c1cc(Oc2ccc(NC(=O)Nc3ccc(Cl)c(C(F)(F)F)c3)cc2)ccn1` [CM4307, 4-(4-(3-(4-chloro-3-(trifluoromethyl)phenyl)ureido)-phenoxy)-N-(methyl-d3)picolinamide], for which the “relative tumor increment rate T/C %” value reads like this: under setting [1], 53.6%; under setting [2], 40.8%; under setting [3], 19.6%. Moreover, for the setting “100 mg/kg po qd x 2 weeks”, the “increase of relative value of tumor inhibition compared with CM4306 (32.2%/19.6%−1=64%)” value was “about 60%”.
